The source of these data is patent publication EP3693362B1, “PARASITIC PLANT GERMINATION REGULATOR” (National University Corporation Tokai National Higher …, priority 2017, dated 2019).

Where only a bound is given, the exact number is not on record here.

The first assay has as its target T1, HTL5 (Striga hermonthica, UniProt A0A0M5I297).
T1 sequence (A0A0M5I297 1-271): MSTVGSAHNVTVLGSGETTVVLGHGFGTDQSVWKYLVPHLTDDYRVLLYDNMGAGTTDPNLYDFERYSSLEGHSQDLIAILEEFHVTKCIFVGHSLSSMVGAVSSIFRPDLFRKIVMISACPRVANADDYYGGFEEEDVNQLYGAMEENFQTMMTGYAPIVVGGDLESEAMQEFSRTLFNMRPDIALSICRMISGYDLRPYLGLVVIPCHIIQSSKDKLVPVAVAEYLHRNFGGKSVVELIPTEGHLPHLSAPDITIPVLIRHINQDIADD
The experiment in a line: Affinity for strigolactone receptor, YLG probe competition (fluorescence). The format is binding. The settings on record: competition with YLG, test range 0.01 to 10 µM, pH 7.0, read-out: IC50 values of test compounds. The protocol: (§1) PTL 1 reports that the affinity of a test compound for the strigolactone receptor can be evaluated by reacting strigolactone with a probe for evaluation of affinity for a strigolactone receptor (e.g., YLG) in the presence of the test compound, and measuring the fluorescence emitted from the decomposition product of YLG. Therefore, the compounds synthesized in Example 1 were used as the test compounds, and the affinity for the strigolactone receptor was evaluated by a similar method to the above. The details are as follows.
(§2) An Arabidopsis thaliana strigolactone receptor (AtD14) was produced in accordance with a usual method. More specifically, cDNA of the receptor was obtained by RT-PCR, and expression and purification were carried out in E. coli. Additionally, Striga strigolactone receptors were produced by the method disclosed in PTL 1 (ShHTL1: amino acid SEQ ID NO: 1, ShHTL2: amino acid SEQ ID NO: 2, ShHTL3: amino acid SEQ ID NO: 3, ShHTL4: amino acid SEQ ID NO: 4, ShHTL5: amino acid SEQ ID NO: 5, ShHTLS: amino acid SEQ ID NO: 6, ShHTL7: amino acid SEQ ID NO: 7, ShHTLS: amino acid SEQ ID NO: 8, ShHTL9: amino acid SEQ ID NO: 9, ShHTL10: amino acid SEQ ID NO: 10, and ShHTL11: amino acid SEQ ID NO: 11.)
(§3) One hundred microliters of a reaction solution containing each of the obtained strigolactone receptors ([…]), YLG (final concentration: […]), and each of the test compounds (final concentration: 0.01 to 10 µM) or the control compound (5-deoxystrigol, final concentration: 0.01 to 10 µM) as a competitive compound (100 mM HEPES, 150 mM NaCl, pH: 7.0, 0.1% DMSO) was prepared and reacted in a 96 black-well plate (Greiner). Sixty after the initiation of the reaction, fluorescence was detected at an excitation wavelength of 480 nm and a detection wavelength of 520 nm using a fluorescence detector (SpectraMax i3, manufactured by Molecular Devices), and the fluorescence intensity was measured. Based on the measurement results of fluorescence intensity, a Lineweaver-Burk plot was created to calculate the Km values, and the IC50 values of each of the test compounds and the control compound, which are competitive compounds.
(§4) In Table 7, HTL1 to HTL11 refer to strigolactone receptors (SEQ ID NOs: 1 to 11), and AtD14 refer to the Arabidopsis thaliana strigolactone receptor.
As to `CCCCOc1ccc(S(=O)(=O)N2CCN(C(=O)OC3C=CC(=O)O3)CC2)cc1` (stereo not shown) [Compound 13], the IC50 is above 10 µM.

With `CC1=CC(OC(=O)NCc2ccccc2)OC1=O` (stereo not shown) [Comparison Compound 1, reference compound], the IC50 is above 10 µM.

For the molecule `CC1=CC(OC=C2C(=O)OC3C4=C(CCCC4(C)C)CC23)OC1=O` (stereo not shown) [5-Ddeoxystriqol, 5-deoxystrigol, reference compound], the IC50 was 3.6 µM.

Take `CCCCOc1ccc(S(=O)(=O)N2CCN(C(=O)OC3C=C(C)C(=O)O3)CC2)cc1` (stereo not shown) [Compound 1]: the IC50 is above 10 µM.

Another assay deals with T2, HTL8 (Striga hermonthica, UniProt A0A0M4APJ4).
T2 sequence (A0A0M4APJ4 1-272): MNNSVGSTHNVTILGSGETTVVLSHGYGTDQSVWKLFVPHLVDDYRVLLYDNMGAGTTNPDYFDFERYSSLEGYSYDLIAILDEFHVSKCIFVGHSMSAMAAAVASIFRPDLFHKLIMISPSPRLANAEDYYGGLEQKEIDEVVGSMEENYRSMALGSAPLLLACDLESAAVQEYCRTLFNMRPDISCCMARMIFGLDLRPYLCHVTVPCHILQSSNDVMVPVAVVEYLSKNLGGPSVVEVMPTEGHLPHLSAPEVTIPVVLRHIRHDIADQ
Described as above. The format is binding. The settings on record: competition with YLG, test range 0.01 to 10 µM, pH 7.0, read-out: IC50 values of test compounds. How it is done: as §1, §2, §3, §4
Take `CCCCOc1ccc(S(=O)(=O)N2CCN(C(=O)OC3C=CC(=O)O3)CC2)cc1` (stereo not shown) [Compound 13]: the IC50 was above 10 µM.

In the case of `CC1=CC(OC(=O)NCc2ccccc2)OC1=O` (stereo not shown) [Comparison Compound 1, reference compound], the IC50 was above 10 µM.

Consider `CC1=CC(OC=C2C(=O)OC3C4=C(CCCC4(C)C)CC23)OC1=O` (stereo not shown) [5-Ddeoxystriqol, 5-deoxystrigol, reference compound], for which the IC50 stood at 0.36 µM.

For the molecule `CCCCOc1ccc(S(=O)(=O)N2CCN(C(=O)OC3C=C(C)C(=O)O3)CC2)cc1` (stereo not shown) [Compound 1], the half-inhibitory concentration (IC50) is 1.1 µM.

For another assay, the target named is T3, HTL3 (Striga hermonthica, UniProt A0A0M3PN85).
T3 sequence (A0A0M3PN85 1-276): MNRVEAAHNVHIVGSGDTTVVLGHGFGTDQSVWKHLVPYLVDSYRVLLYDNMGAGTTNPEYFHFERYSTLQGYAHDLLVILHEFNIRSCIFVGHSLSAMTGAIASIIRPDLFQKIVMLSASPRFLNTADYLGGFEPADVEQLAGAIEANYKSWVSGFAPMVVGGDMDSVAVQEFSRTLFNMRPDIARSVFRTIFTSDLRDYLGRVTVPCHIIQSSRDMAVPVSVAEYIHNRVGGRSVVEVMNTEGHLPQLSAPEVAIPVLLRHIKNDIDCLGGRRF
The assay is described as above. The settings on record: competition with YLG, test range 0.01 to 10 µM, pH 7.0, read-out: IC50 values of test compounds. The assay is classed as binding. The protocol: as §1, §2, §3, §4
Consider `CCCCOc1ccc(S(=O)(=O)N2CCN(C(=O)OC3C=CC(=O)O3)CC2)cc1` (stereo not shown) [Compound 13], for which the IC50 was found to be 2 µM.

As to `CC1=CC(OC(=O)NCc2ccccc2)OC1=O` (stereo not shown) [Comparison Compound 1, reference compound], the IC50 was above 10 µM.

As for `CC1=CC(OC=C2C(=O)OC3C4=C(CCCC4(C)C)CC23)OC1=O` (stereo not shown) [5-Ddeoxystriqol, 5-deoxystrigol, reference compound], the IC50 worked out at 9.3 µM.

For `CCCCOc1ccc(S(=O)(=O)N2CCN(C(=O)OC3C=C(C)C(=O)O3)CC2)cc1` (stereo not shown) [Compound 1], the IC50 was above 10 µM.

For another assay, the target named is T4, HTL10 (Striga hermonthica, UniProt A0A0M4AH20).
T4 sequence (A0A0M4AH20 1-268): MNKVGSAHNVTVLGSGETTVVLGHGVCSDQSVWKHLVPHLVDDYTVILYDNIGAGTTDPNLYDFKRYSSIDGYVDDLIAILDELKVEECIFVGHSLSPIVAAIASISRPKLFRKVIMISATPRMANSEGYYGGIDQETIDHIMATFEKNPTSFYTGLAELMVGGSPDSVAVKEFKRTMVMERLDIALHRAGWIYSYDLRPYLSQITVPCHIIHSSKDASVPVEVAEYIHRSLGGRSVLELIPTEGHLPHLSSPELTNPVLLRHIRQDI
The description is as above. The note with it: competition with YLG, test range 0.01 to 10 µM, pH 7.0, read-out: IC50 values of test compounds. The assay is classed as binding. How it is done: as §1, §2, §3, §4
`CCCCOc1ccc(S(=O)(=O)N2CCN(C(=O)OC3C=CC(=O)O3)CC2)cc1` (stereo not shown) [Compound 13]: the concentration for half-maximal inhibition (IC50) is above 10 µM.

`CC1=CC(OC(=O)NCc2ccccc2)OC1=O` (stereo not shown) [Comparison Compound 1, reference compound]: the concentration for half-maximal inhibition (IC50) is above 10 µM.

Regarding `CC1=CC(OC=C2C(=O)OC3C4=C(CCCC4(C)C)CC23)OC1=O` (stereo not shown) [5-Ddeoxystriqol, 5-deoxystrigol, reference compound], the IC50 is 0.62 µM.

Consider `CCCCOc1ccc(S(=O)(=O)N2CCN(C(=O)OC3C=C(C)C(=O)O3)CC2)cc1` (stereo not shown) [Compound 1], for which the IC50 is above 10 µM.

For a further assay, the system named is Striga hermonthica. The experiment in a line: Parasitic plant germination induction test (Striga hermonthica seeds). The format is in vivo. The settings on record: compound concentration 0.1 nM, in the dark for 2 days. The protocol: A parasitic plant germination induction test was conducted using the compounds synthesized in Example 1 as test compounds. The seeds of a parasitic plant (Striga hermonthica, Orobanche minor, or Phelipanche aegyptiaca) were suspended in sterilized ultrapure water, and this was dispensed in an amount of 100 µL each (containing about 20 seeds) into a 96-well plate. The test compounds or control compounds (Comparison Compound 1 or synthetic Strigolactone (GR^24: Comparison Compound 2)) dissolved in DMSO were individually added thereto to a final concentration of these compounds of 10 nM to 1 fM (1 × 10^-8 to 1 × 10^-15 M), and allowed to stand in the dark for 2 days. The presence or absence of germination was observed using a microscope, and the germination rate (i.e., number of germinated seeds/total number of seeds) was measured. The higher the germination rate in the parasitic plant germination induction test, or the higher the germination rate at lower concentration, the higher the Striga germination inducing activity.
In Tables 1 to 6, the concentrations (10 nM, 1 nM, and 0.1 nM) represent compound concentrations. In Tables 1-6, the evaluation criteria for the compounds are as follows: • ++: germination rate of 20% or more • +: germination rate of 5% or more and less than 20% • -: germination rate of less than 5% Table 1
As for `CCCCOc1ccc(S(=O)(=O)N2CCN(C(=O)OC3C=CC(=O)O3)CC2)cc1` (stereo not shown) [Compound 13], the “Germination rate 0.1 nM” value is “+ (germination rate of 5% or more and less than 20%)”.

`CC1=CC(OC(=O)NCc2ccccc2)OC1=O` (stereo not shown) [Comparison Compound 1, reference compound]: the “Germination rate 0.1 nM” value is listed as “- (germination rate of less than 5%)”.

Consider `CCCCOc1ccc(S(=O)(=O)N2CCN(C(=O)OC3C=C(C)C(=O)O3)CC2)cc1` (stereo not shown) [Compound 1], for which the “Germination rate 0.1 nM” value is “++ (germination rate of 20% or more)”.

Still in this assay, the particulars now being: compound concentration 1 nM, in the dark for 2 days.
Consider `CCCCOc1ccc(S(=O)(=O)N2CCN(C(=O)OC3C=CC(=O)O3)CC2)cc1` (stereo not shown) [Compound 13], for which the “Germination rate 1 nM” value is “++ (germination rate of 20% or more)”.

For the molecule `CC1=CC(OC(=O)NCc2ccccc2)OC1=O` (stereo not shown) [Comparison Compound 1, reference compound], the “Germination rate 1 nM” value is on record as “- (germination rate of less than 5%)”.

Turning to `CCCCOc1ccc(S(=O)(=O)N2CCN(C(=O)OC3C=C(C)C(=O)O3)CC2)cc1` (stereo not shown) [Compound 1], the “Germination rate 1 nM” value was “++ (germination rate of 20% or more)”.

The assay is the same for the next values; noted with them: compound concentration 10 nM, in the dark for 2 days.
Turning to `CCCCOc1ccc(S(=O)(=O)N2CCN(C(=O)OC3C=CC(=O)O3)CC2)cc1` (stereo not shown) [Compound 13], the “Germination rate 10 nM” value is reported as “++ (germination rate of 20% or more)”.

In the case of `CC1=CC(OC(=O)NCc2ccccc2)OC1=O` (stereo not shown) [Comparison Compound 1, reference compound], the “Germination rate 10 nM” value is given as “- (germination rate of less than 5%)”.

On to `CCCCOc1ccc(S(=O)(=O)N2CCN(C(=O)OC3C=C(C)C(=O)O3)CC2)cc1` (stereo not shown) [Compound 1], for which the “Germination rate 10 nM” value is “++ (germination rate of 20% or more)”.

In general, IC50 refers to the concentration that inhibits the measured activity by half.
